According to patent EP4810038A1, “METHOD FOR TREATING ALK-POSITIVE OR ROS1-POSITIVE NON-SMALL CELL LUNG CANCER” (Shenzhen TargetRx Co., Ltd., priority 2023, dated 2025):
Several values for one entry are separate records, joined by “and”; a condition that tells them apart may be missing. Equal values may be shown once. Read-outs that look alike come from different tables or passages of the source.

Tests used:
[1] = tested on: Ba/F3 (EML4-ALK G1202R) cell line; assay: Anti-tumor effect in subcutaneous transplanted Ba/F3 (EML4-ALK G1202R) model; assay type: in vivo, NOD-SCID mice; conditions: for average tumor volume: 16th day after administration
Text: Example 2: The anti-tumor effect in the subcutaneous transplanted animal model of Ba/F3 (EML4-ALK G1202R) cell line in female NOD-SCID mice.
Laboratory animals: NOD-SCID mice, female, 7 to 8 weeks old (the age of mice at tumor cell inoculation), weighing 16.0 to 20.3 g, and 50 mice (with additional 30 surplus mice). […] Housing environment: SPF grade.
Environmental conditions of the housing room of the laboratory animals: All the laboratory animals were housed in individually ventilated cages with constant temperature and constant humidity. The temperature of the housing room was 20 to 26 °C, the humidity was 40 to 70%, the ventilation was 10 to 20 times/hour, and the day/night light/dark cycle was 12h/12h. The animals were continuously provided with cobalt-60 irradiated complete pelleted mouse feed with unlimited free access. The animals drank tap water (used after being autoclaved), which was provided continuously from water bottles, allowing for free access. The cages for raising the mice were polysulfone mice cages, which were autoclaved before use, and measured 325 mm × 210 mm × 180 mm. The bedding was autoclaved corn cobs. Each cage contained 5 animals. […] The laboratory animals were marked with ear tags or ear labels.
Cell culture: Ba/F3 (EML4-ALK G1202R) cells (cell number: ECL-00031) were cultured in RPMI 1640 culture medium containing 10% fetal bovine serum. The Ba/F3 (EML4-ALK G1202R) cells in the exponential growth phase were collected, resuspended in PBS to a suitable concentration, and then subcutaneously inoculated for tumor formation.
Assay method: Female NOD/SCID mice were subcutaneously inoculated with 2×10^6 Ba/F3 (EML4-ALK G1202R) cells on the right side to establish a subcutaneous tumor transplantation model. […] The mice were administered orally via gavage once daily. The efficacy was evaluated based on the relative tumor growth inhibition rate (TGI), and the safety was evaluated based on the changes in the body weight and mortality of the animals.
All the procedures, including drug administration, tumor measurement, weight measurement, etc., were performed in a biosafety cabinet or on a clean bench.
The relative tumor growth rate (T/C%) was the percentage value of the relative tumor volume between a treatment group and the control group at a certain time point, or the percentage value of the tumor weight between a treatment group and the control group. […]

[2] = Phase I clinical trial: pharmacokinetics after single and multiple oral administrations; assay type: in vivo, human; conditions: for AR / Cmax / AUC / AUC(0-inf) / AUC(0-t) / half-life: GM (%CV); for Cmax / Tmax / AUC / AUC(0-inf) / AUC(0-t) / half-life: human, plasma, oral; for Tmax: Median (min-max); for AUC: read-out: AUC0-τ
Text: The PK parameters for single-dose administration mainly include peak concentration (Cmax), time to peak concentration (Tmax), half-life (T1/2), systemic clearance (CL), volume of distribution (Vd), AUC0-t, and AUC0-∞. The PK parameters for multiple-dose administration mainly include the area under the steady-state plasma concentration-time curve (AUCss), steady-state peak plasma concentration (Cmax, ss), steady-state trough plasma concentration (Cmin, ss), and steady-state time to peak plasma concentration (Tmax, ss).
Approximately eight dose groups in total were set in the dose escalation phase, which were 5 (the starting dose), 10, 20, 40, 60, 80, 100, and 125 mg, respectively. Subjects in all the dose groups received a single dose on day 1 (D1), and the blood samples were collected for pharmacokinetic (PK) assay and tolerability observation. If no grade 2 or a higher-level adverse event related to the investigational drug occurred during the single-dose period (5 to 7 days) (if such events occurred, dose adjustments would be made based on the toxicity according to the protocol), the subject entered the multiple-dose period (i.e., treatment period) 5 to 7 days later (7 days after the first administration in the first dose group (i.e., starting the multiple-dose treatment on day 8), and the intervals for the subsequent dose groups were determined based on the obtained tolerability and PK data). After entering the multiple-dose period, the subjects in the first dose group were initially administered with the drug once daily (QD) (if the PK data for the single-dose period had been obtained, the administration frequency for the multiple-dose period could be determined based on the PK data). The administration frequency for the subjects in the subsequent dose groups after entering the multiple-dose period was determined based on the obtained PK and tolerability data. In this trial, the administration frequency for all the subjects could be adjusted throughout the trial based on the continuously acquired safety and PK data. The four lower dose groups (5 mg, 10 mg, 20 mg and 40 mg) used an accelerated titration design, with one subject enrolled in each dose group. If any grade 2 or a higher-level adverse event related to the investigational drug occurred, the "3+3" dose escalation method would be switched to. The 60 mg dose group and the subsequent dose groups followed a "3+3" dose escalation method, and the MTD was determined. After the evaluation of the 8th dose group, if the researcher and the sponsor agreed that a higher dose group might have better efficacy and manageable safety, then a higher dose could be explored (e.g., the 9th dose group and the 10th dose group, at 150 mg and 180 mg, respectively). During the dose escalation, if a dose group was confirmed to have a preliminary antitumor effect and manageable safety (e.g., no DLT occurred in 3 subjects or only 1 out of 6 subjects experienced DLT), the dose level could be expanded after a discussion and confirmation by the researcher and the sponsor.
All the subjects in the dose escalation phase and dose expansion phase of this research needed to undergo intensive blood collection for PK study of the compound A, and all the subjects needed to undergo a population PK study of the compound A.

[3] = tested on: ALK-positive advanced NSCLC who had failed a second-generation ALK inhibitor; assay: Phase II single-arm trial, 60 mg QD: whole-body tumor efficacy (IRC assessment); assay type: in vivo, human
Text: Variable of the research: whether the subjects achieved objective response (CR/PR) during the treatment, as assessed by the independent review committee (IRC).

[4] = Phase II single-arm trial: safety analysis; assay type: in vivo; conditions: 60 mg QD
Text: Once a subject met the criteria for the discontinuation of the treatment/withdrawal from the treatment and discontinued the medication, the subject entered a 4-week safety follow-up period. If other anti-tumor therapies were used during the safety follow-up period, a safety follow-up visit and inspection must be completed before starting the other anti-tumor therapies. For the unresolved adverse event or abnormal laboratory test, the follow-up continued until the event was resolved, the subject returned to the baseline status, the condition stabilized, a reasonable explanation was obtained, or the subject was lost to follow-up or died.

[5] = Multiple administrations, 40 mg
[6] = Multiple administrations, 60 mg
[7] = Multiple administrations, 80 mg
[8] = Multiple administrations, 100 mg
[9] = Multiple administrations, 125 mg
[10] = 158 subjects, cutoff May 20, 2024
[11] = whole-body, full analysis set (N=158)

In the case of `[2H]C([2H])([2H])n1nc2c(c1C#N)-c1cnc(N)c(c1)O[C@H](C)c1cc(F)ccc1C(=O)N(C)C2` [compound A, (10R)-7-amino-12-fluoro-2-(methyl-d3)-10,16-dimethyl-15-oxo-10,15,16,17-tetrahydro-2H-8,4-(metheno)pyrazolo[4,3-h][2,5,11]benzoxadiazacyclotetradecine-3-carbonitrile], the average tumor volume ([1]; 1.5 mg/kg p.o. once daily) is reported as 2139.18 mm^3, the average tumor volume ([1]; 5 mg/kg p.o. once daily) is reported as 576.11 mm^3 and the average tumor volume ([1]; 15 mg/kg p.o. once daily) is reported as 0.25 mm^3. The “tumor-bearing mice with tumor volume reduced to 0” value ([1]; 15 mg/kg, end of the assay) was 9/10, the AR [2, 5] was 1.044(25 .1) [3] and the AR [2, 6] was 0.913(44.1 ) [3]. The AR [2, 7] was 1.256(45.9) [4], the AR [2, 8] was 0.732(6 6.4) [3] and the AR [2, 9] was 0.606(36. 1) [3]. It also gave a Cmax ([2]; 40 mg, Multiple administrations, 40 mg, read-out: Cmax, SS) of 387 ng/mL, a Tmax ([2]; 40 mg, Multiple administrations) of 1 h and a Cmax ([2]; 40 mg, Single administration, 40 mg, read-out: Cmax) of 392 ng/mL. It also gave a Tmax ([2]; 40 mg, Single administration) of 0.98 h, a Cmax ([2]; 60 mg, Multiple administrations, 60 mg, read-out: Cmax, SS) of 644 ng/mL and a Tmax ([2]; 60 mg, Multiple administrations) of 0.533 h. The Cmax ([2]; 60 mg, Single administration, 60 mg, read-out: Cmax) was 875 ng/mL, the Tmax ([2]; 60 mg, Single administration) was 0.5 h and the Cmax ([2]; 80 mg, Multiple administrations, 80 mg, read-out: Cmax, SS) was 589 ng/mL. It also gave a Tmax ([2]; 80 mg, Multiple administrations) of 1.56 h, a Cmax ([2]; 80 mg, Single administration, 80 mg, read-out: Cmax) of 524 ng/mL and a Tmax ([2]; 80 mg, Single administration) of 0.7 h. The Cmax ([2]; 100 mg, Multiple administrations, 100 mg, read-out: Cmax, SS) was 798 ng/mL, the Tmax ([2]; 100 mg, Multiple administrations) was 1.97 h and the Cmax ([2]; 100 mg, Single administration, 100 mg, read-out: Cmax) was 774 ng/mL. It also gave a Tmax ([2]; 100 mg, Single administration) of 1.02 h, a Cmax ([2]; 125 mg, Multiple administrations, 125 mg, read-out: Cmax, SS) of 987 ng/mL and a Tmax ([2]; 125 mg, Multiple administrations) of 0.5 h. For the same compound, the Cmax ([2]; 125 mg, Single administration, 125 mg, read-out: Cmax) was 1260 ng/mL, the Tmax ([2]; 125 mg, Single administration) was 1.02 h and the AUC [2, 5] was 3880 ng·h/mL. For the same compound, the AUC [2, 6] was 5440 ng·h/mL, the AUC [2, 7] was 5500 ng·h/mL and the AUC [2, 8] was 7020 ng·h/mL. The AUC [2, 9] was 7700 ng·h/mL, the AUC(0-inf) ([2]; Single administration, 40 mg) was 4710 ng·h/mL and the AUC(0-t) ([2]; Single administration, 40 mg) was 4440 ng·h/mL. The half-life ([2]; Single administration, 40 mg) was 27.8 h, the AUC(0-inf) ([2]; Single administration, 60 mg) was 12200 ng·h/mL and the AUC(0-t) ([2]; Single administration, 60 mg) was 11300 ng·h/mL. The half-life ([2]; Single administration, 60 mg) was 33.6 h, the AUC(0-inf) ([2]; Single administration, 80 mg) was 10100 ng·h/mL and the AUC(0-t) ([2]; Single administration, 80 mg) was 9140 ng·h/mL. It also gave a half-life ([2]; Single administration, 80 mg) of 34.2 h, an AUC(0-inf) ([2]; Single administration, 100 mg) of 14600 ng·h/mL and an AUC(0-t) ([2]; Single administration, 100 mg) of 13800 ng·h/mL. It also gave a half-life ([2]; Single administration, 100 mg) of 30.5 h, an AUC(0-inf) ([2]; Single administration, 125 mg) of 18700 ng·h/mL and an AUC(0-t) ([2]; Single administration, 125 mg) of 17800 ng·h/mL. The half-life ([2]; Single administration, 125 mg) was 29.2 h, the “median DOR” value [3, 10] was “not yet reached” and the “median PFS” value [3, 10] was 11.14 months. For the same compound, the “median TTR” value [3, 10] was 1.38 months, the ORR ([3]; subgroup ECOG PS score of 0 at baseline, FAS) was 50.0% and the ORR ([3]; subgroup ECOG PS score of 1 to 2 at baseline, FAS) was 40.8%. For the same compound, the ORR ([3]; subgroup age < 65 years old, FAS) was 43.0%, the ORR ([3]; subgroup age ≥ 65 years old, FAS) was 40.0% and the ORR ([3]; subgroup female, FAS) was 42.9%. It also gave an ORR ([3]; subgroup male, FAS) of 41.9%, an ORR ([3]; subgroup never received chemotherapy, FAS) of 45.4% and an ORR ([3]; subgroup previously received chemotherapy, FAS) of 37.7%. It also gave an ORR ([3]; subgroup with a smoking history, FAS) of 38.6%, an ORR ([3]; subgroup with brain metastases at baseline, FAS) of 45.3% and an ORR ([3]; subgroup without a smoking history, FAS) of 39.4%. The ORR ([3]; subgroup without brain metastases at baseline, FAS) was 38.9%, the “BOR CR” value [3, 11] was 0 n (%) and the “BOR NE” value [3, 11] was 2 (1.3) n (%). The “BOR PD” value [3, 11] was 25 (15.8) n (%), the “BOR PR” value [3, 11] was 67 n (%) and 67 (42.4) n (%) and the “BOR SD” value [3, 11] was 64 (40.5) n (%). The DCR [3, 11] was 131 (82.9) n (%), the ORR [3, 11] was 67 n (%) and 67 (42.4) n (%) and the “common TRAEs” value [4] was “hypercholesterolemia, hypertriglyceridemia, weight gain, anemia, and peripheral edema”. For the same compound, the “incidence of TRAEs leading to dose reduction, temporary or permanent discontinuation of medication” value [4] was “low”.
